Results reported in EP3771487A1, “METHOD FOR THE SIMULTANEOUS DETERMINATION OF VARIOUS ANALYTES IN AN ENVIRONMENTAL SAMPLE AND / OR AN AGRICULTURAL RAW MATERIAL BASED ON CORE-SHELL MICROPARTICLES” (Bundesrepublik Deutschland, vertreten durch den …, priority 2019, dated 2021).

How the values were obtained:
anti-DCF mAb [1] = assay: SAFIA (indirect competitive particle-based suspension array fluorescence immunoassay), DCF channel; format: binding, Maus; conditions: for Molare Kreuzreaktivität DCF (SAFIA): method of Abraham, anti-DCF antibody
Experimental: (§1) Indirekt kompetitiver partikelbasierter Immunoassay: Alle Immunoassays wurden in schwarzen, nicht-bindenden Mikrotiterplatten mit flachem Boden (Greiner Bio-One) durchgeführt. Zum Verdünnen der Suspension der Mikropartikel (Beads) und der biochemischen Reagenzien wurde TRIS-gepufferte Salzlösung (10 mM Tris (hydroxymethyl)aminomethan, 150mM NaCl, pH = 8,5) verwendet. Zunächst wurden 50 µL der Probe oder des Standards und 50 µl einer Mischung der primären (prim.) Antikörper anti-CAF (272 µg/L), anti-CBZ (350 µg/L), anti-DCF (20 µg/L), anti-OTA (50 ng/L), anti-ZON (250µg/L) und anti-ILA (Verdünnung des (polyklonalen) Antiserums: 1:10.000) während 5 Minuten auf einem Kreisschüttler (Titra-max 101, Heidolph) bei 750 U/min geschüttelt. Zur Kalibrierung wurde eine 8-Punkt Verdünnungsserie eines Mischstandards jedes Analyten umfassend Konzentrationen von 10.000 µg/L bis 1 ng/L verwendet, der durch serielle Verdünnung einer methanolischen Stammlösung von 1 mg/mL jedes einzelnen Analyten mit ultrareinem Wasser hergestellt worden war. Danach wurden 20 µL einer Mischung der fluoreszenzkodierten, Hapten-gekoppelten Mikropartikel (Mikropartikel) zugesetzt und für weitere 5 min geschüttelt. Um ein Messsignal der gebundenen Antikörper zu erhalten, wurden 100 µL Alexa Fluor™488 Ziege anti-mouse (und anti-Kaninchen) IgG(H+L), je 2 µg/mL Antikörper (dye 2 red-kodierte Partikel), oder Alexa Fluor™647 Ziege anti-Maus (und anti-Kaninchen) IgG(H+L), je 2 µg/ml Antikörper (dye 1 green kodierte Partikel) den Kern/Schale-Partikeln zugesetzt und für 15 min inkubiert.
(§2) Abschließend wurden, um den Assay zu stoppen, 100 µL einer 6%-igen Formaldehyd-Lösung (aus 37% HCHO/10-15% MeOH Stammlösung, (w/w)), 2% MeOH und 0.01% SDS in PBS zugesetzt und für mindestens 10 min inkubiert. Die Mischung jedes Kavität wurde in einem BD Accuri C6 oder BD AccuriC6 plus Durchflusszytometer bei einer Flussrate von 66 µL/min während 30 s analysiert, wobei ein Schwellwert von 80.000 a.u. am FSC Detektor und ein Probeninjektionsport (SIP)- Reinigungszyklus zwischen den einzelnen Durchläufen eingeschoben wurde, um ein Verschleppen (Übertrag) zu verhindern. Standards und Proben wurden zufällig über die Mikrotiterplatte verteilt angeordnet, um einen Einfluss von Signaldrift und Randeffekte möglichst auszuschließen. Zum Testen der Bindungs-Selektivität wurde jeder Antikörper separat mit jedem haptenmodifizierten (d.h. Haptengekoppeltem) Set der verwendeten Kern/Schale-Mikropartikel inkubiert. Die hier als Fixierlösung verwendete Lösung umfasst bevorzugt Formaldehyd im Konzentrationsbereich 1-10 % vol/vol), Methanol (1-10 % vol/vol) und Natriumdodecylsulfat (0,001-10 % m/m). Statt Formaldehyd können auch andere Aldehyde mit quervernetzenden Eigenschaften (z.B. Glyoxal, Glutarladehyd, Malondialdehyd, Dipalaldehyd) eingesetzt werden. Statt Natriumdodecylsulfat können andere Detergenzien (z.B. Tween20, TitronX, Genapol, CTAB) verwendet werden.
(§3) Datenbehandlung: Alle zytometrischen Daten wurden zunächst nach Streuwerten gegated (FSC/SSC (gate "size": vgl. Fig. 2E) um Partikelaggregate von der Berechnung auszuschließen. Danach wurden vier Gates am FSC/FL-4 (dye 2 red kodierte Partikel, Fig. 2F) oder FSC/FL-1 (dye 1 green kodierte Partikel) verwendet, um die Partikel zu dekodieren und die Analyt-bezogene mittlere Fuoreszenzintensität zu berechnen (vgl. Fig. 2G). Mittelwerte und Standardabweichungen von Wiederholungsmessungen wurden gegen die Konzentration der entsprechenden Analyte auf einer logarithmischen Skale abgetragen. Die von Rodbard eingeführte (Rodbard, D. Biometrics 1975, 31, 599-600) Vier-Parameter-Eichkurve wurde nach der Methode der kleinsten Fehlerquadrate mittels Origin® ver. 9 Grafik-Software gefittet. Ausreißer wurden mittels Grubbs Test bei einem SignifikanzNiveau α = 0,05 identifiziert und eliminiert. Welch's t-Test wurde mit einem Signifikanzniveau von α = 0,05 unter Zuhilfenahme von Origin® 9 verwendet. […]

anti-CBZ mAb [2] = assay: SAFIA (indirect competitive particle-based suspension array fluorescence immunoassay), CBZ channel; format: binding, Maus; conditions: for Molare Kreuzreaktivität CBZ (SAFIA): method of Abraham, anti-CBZ antibody
Experimental: as §1, §2, §3

anti-ILA Antiserum [3] = assay: SAFIA (indirect competitive particle-based suspension array fluorescence immunoassay), ILA channel; format: binding, Kaninchen; conditions: for Molare Kreuzreaktivität ILA (SAFIA): method of Abraham, anti-ILA antiserum
Experimental: as §1, §2, §3

anti-CBZ mAb [4] = conditions: anti-CBZ antibody; cited from earlier work
[5] = system: anti-CAF Antikörper (mAb); assay: SAFIA (indirect competitive particle-based suspension array fluorescence immunoassay), CAF channel; format: binding, Maus; conditions: for Molare Kreuzreaktivität CAF (SAFIA): method of Abraham, anti-CAF antibody
Experimental: as §1, §2, §3

anti-DCF mAb [6] = conditions: anti-DCF antibody; cited from earlier work
[7] = system: anti-CAF Antikörper (mAb); conditions: anti-CAF antibody; cited from earlier work
anti-ILA Antiserum [8] = conditions: cited from earlier work
[9] = calibration curve, dye 2 red coded particles, Alexa Fluor™488 secondary antibody

| Structure (SMILES) | Molare Kreuzreaktivität DCF (SAFIA) (anti-DCF mAb [1]) | Molare Kreuzreaktivität CBZ (SAFIA) (anti-CBZ mAb [2]) | Molare Kreuzreaktivität ILA (SAFIA) (anti-ILA Antiserum [3]) | Molare Kreuzreaktivität CBZ (ELISA) (anti-CBZ mAb [4]) | Molare Kreuzreaktivität CAF (SAFIA) [5] | Molare Kreuzreaktivität DCF (ELISA) (anti-DCF mAb [6]) [%] | Molare Kreuzreaktivität CBZ (SAFIA) (anti-CBZ mAb [2]; listed as Carbamazepin-10,1-L-epoxid) [%] | IC50 "Dye 2 Red" [5, 9] | Molare Kreuzreaktivität CAF (ELISA) [7] | IC50 "Dye 2 Red" (anti-CBZ mAb [2]; [9]) | Molare Kreuzreaktivität ILA (ELISA) (anti-ILA Antiserum [8]) | IC50 "Dye 2 Red" (anti-DCF mAb [1]; [9]) | IC50 "Dye 2 Red" (anti-ILA Antiserum [3]; [9]) |
| --- | --- | --- | --- | --- | --- | --- | --- | --- | --- | --- | --- | --- | --- |
| NC(=O)N1c2ccccc2C=Cc2ccc(O)cc21 [3-Hydroxycarbamazepin] | <0,1% | 20,2% | < 0,1% | 5,1% | <0,1% | – | – | – | – | – | – | – | – |
| O=C(O)Cc1ccccc1Nc1c(Cl)cc(O)cc1Cl [4'-Hydroxydiclofenac] | <0,1% | <0,1% | <0,1% | – | <0,1% | 11 | – | – | – | – | – | – | – |
| O=C(O)Cc1cc(O)ccc1Nc1c(Cl)cccc1Cl [5'-Hydroxydiclofenac] | 9,8% | <0,1% | <0,1% | – | <0,1% | 13 | – | – | – | – | – | – | – |
| NC(=O)N1c2ccccc2C(O)C(O)c2ccccc21 (centres unmarked) [10,11-Dihydroxy-carbamazepin] | < 0,1% | 0,3% | – | 0,1% | <0,1% | – | – | – | – | – | – | – | – |
| NC(=O)N1c2ccccc2C2OC2c2ccccc21 (centres unmarked) [10,11-Epoxycarbamazepin] | <0,1% | 117% | < 0,1% | 140% | <0,1% | – | 118 | – | – | – | – | – | – |
| O=C(O)COC(=O)Cc1ccccc1Nc1c(Cl)cccc1Cl [Aceclofenac] | 16,6% | <0,1% | <0,1% | – | <0,1% | – | – | – | – | – | – | – | – |
| Cn1c(=O)c2c(ncn2C)n(C)c1=O [CAF, Coffein] | <0,1% | <0,1% | < 0,1% | – | 100% | – | – | 1,72 ± 0,16 µg/L | 100% | – | – | – | – |
| NC(=O)N1c2ccccc2C=Cc2ccccc21 [CBZ, Carbamazepin] | <0,1% | 100% | < 0,1% | 100% | <0,1% | – | – | – | – | 1,13 ± 0,07 µg/L | – | – | – |
| C[C@H](CCC(=O)O)[C@H]1CC[C@H]2[C@@H]3[C@H](O)C[C@@H]4C[C@H](O)CC[C@]4(C)[C@H]3C[C@H](O)[C@]12C [Cholsäure] | <0,1% | <0,1% | <0,1% | – | <0,1% | – | – | – | – | – | <0,1% | – | – |
| O=C(O)Cc1ccccc1Nc1c(Cl)cccc1Cl [DCF, Diclofenac] | 100% | <0,1% | < 0,1% | – | <0,1% | 100 | – | – | – | – | – | 0,05 ± 0,02 µg/L | – |
| C[C@H](CCC(=O)O)[C@H]1CC[C@H]2[C@@H]3CC[C@@H]4C[C@@H](O)CC[C@]4(C)[C@H]3CC[C@]12C [ILA, Isolithocholsäure] | <0,1% | <0,1% | 100% | – | <0,1% | – | – | – | – | – | 100% | – | 1,39 ± 0,72 µg/L |
| C[C@H](CCC(=O)O)[C@H]1CC[C@H]2[C@@H]3CC[C@@H]4C[C@H](O)CC[C@]4(C)[C@H]3CC[C@]12C [Lithocholsäure] | <0,1% | <0,1% | 1,9% | – | <0,1% | – | – | – | – | – | 0,3% | – | – |
| Cn1c(=O)[nH]c2ncn(C)c2c1=O [Paraxanthin] | <0,1% | <0,1% | <0,1% | – | <0,1% | – | – | – | <0,1% | – | – | – | – |
| C[C@H](CCC(=O)NCCS(=O)(=O)O)[C@H]1CC[C@H]2[C@@H]3CC[C@@H]4C[C@H](O)CC[C@]4(C)[C@H]3CC[C@]12C [Taurolithocholsäure] | <0,1% | <0,1% | <0,1% | – | <0,1% | – | – | – | – | – | 1,2% | – | – |
| Cn1cnc2c1c(=O)[nH]c(=O)n2C [Theobromin] | <0,1% | <0,1% | <0,1% | – | 2,0% | – | – | – | 0,13% | – | – | – | – |
| Cn1c(=O)c2[nH]cnc2n(C)c1=O [Theophyllin] | <0,1% | <0,1% | <0,1% | – | 5,8% | – | – | – | 12,0% | – | – | – | – |
